Source: patent US6962712B2, “Cosmetic or dermatological composition comprising of a combination of an elastase inhibitor of the N-acylaminoamide family and at least one antifungal agent or at least one antibacterial agent” (L'Oreal, priority 2001, dated 2005)

Columns and labels:
[1] = test system: surviving human skins irradiated by UVA; experiment: surviving human skins irradiated by UVA (8 J/cm2), morphometry of elastin fibres and collagen (Example 6); conditions: UVA 8 J/cm2 once, 5 μl of compound at 0.2% in ethanol every two days, 7 days at 37° C.
Experimental: The activity of the compound of Example 2 was evaluated on irradiated surviving human skins irradiated by UVA (8 J/cm2).
The test is performed in the following manner:
Fragments of normal human skin derived from four different donors are deposited in inserts placed in culture wells. Culture medium supplemented with antibiotics is added to the bottom of the wells. Passage by slow diffusion occurs between the two compartments through the intermediary of a porous membrane (pore size: 12 μm).
The culture medium is renewed every three days.
Every two days 5 μl of the test compound previously dissolved at 0.2% in ethanol are added to the skin fragments.
The skins are maintained in survival for 7 days at 37° C.
The skins are irradiated once only at 8 J/cm2 (Vilbert-Lourmat RMX-3W lamp).
The elastin fibres are stained blue with (+) catechol and quantified morphometrically by computer-assisted image analysis. The mean percentage dermal surface area occupied by the elastin fibres was thus evaluated.

[2] = target: T1, human leukocyte elastase (HLE) (Homo sapiens, UniProt P08246); experiment: in vitro anti-elastase activity against human leukocyte elastase, substrate Me-OSAAPV-p-NA, spectrophotometry; type: biochemical; conditions: compound concentration 0.1%; HLE 40 milliunits per ml; 37° C., 60 minutes
T1 sequence (P08246 30-267): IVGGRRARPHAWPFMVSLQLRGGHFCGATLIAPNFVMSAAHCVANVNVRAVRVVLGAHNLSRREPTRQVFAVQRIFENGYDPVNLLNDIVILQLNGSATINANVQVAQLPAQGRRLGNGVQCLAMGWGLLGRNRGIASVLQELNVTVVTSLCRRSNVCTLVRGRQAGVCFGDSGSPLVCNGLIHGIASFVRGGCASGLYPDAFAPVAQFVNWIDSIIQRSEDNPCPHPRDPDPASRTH
Experimental: The anti-elastase activity of compounds according to the invention was determined in vitro against human leukocyte elastase (HLE)
The test was performed in the following manner:
A substrate Me-OSAAPV-p-NA (methyl-O-succinate alanine alanine proline valine-p-nitroanilide) to which is added the HLE (40 milliunits per ml) and 0.1% of the test compound is incubated at 37° C. for 60 minutes.
The % of inhibition of the elastase activity tested is then determined by spectrophotometry.

[3] = test system: Staphylococcus epidermis; experiment: ex vivo bacteria/skin adhesion model, 3H-thymidine labelled bacteria on intact human skin (Example 8); type: cell-based; conditions: test product at 10%, 1 hour at 20° C., control (PBS) = 100%
Experimental: The activity of the honey on the adhesion of micro-organisms to the skin or to human mucous membranes was measured.
This ex vivo bacteria/skin adhesion model is based on the use of intact human skin mounted in a sandwich between a bottomless 96 wells plate and a Plexiglas support. The impervious individualized wells make it possible to test in a standard format the effect of acacia honey on the adhesion of Staphylococcus epidermis (resident bacteria) to the surface of the skin. The bacteria are radiolabelled in the growth phase by the incorporation of 3H-thymidine. This bacterial flora is then deposited in each well. After incubation for one hour at 20° C., the wells are washed three times with phosphate buffered saline (PBS) in order to remove the free bacteria. The acacia honey is then added at 5 and 10% and incubation allowed to proceed for 1 hour at 20° C. At the end of this incubation the content of each well is recovered and counted in scintillation fluid (desorbed bacteria). The wells are then washed with a chaotropic solution which leads to the elution of the adherent bacteria. The washing solutions are also counted in scintillation fluid (adherent bacteria). The positive and negative controls (Fucogel® acid (poly-[(α-1,3)-Fuc-(α-1,3)-Gal-(α-1,3)-galacturonic]) acid and Bioecolia® (Oligo-[α-1,4)-Gluc-(α-1,2)-Fruc-(α-1,6)-Gluc]) described in the publication of Wolf F. et al. (edition of 19th IFSCC Congress, Sydney, 1996) are included in the study as references.

[4] = test system: Staphylococcus epidermis; experiment: ex vivo bacteria/skin adhesion model, 3H-thymidine labelled bacteria on intact human skin (Example 9); type: cell-based; conditions: for Adherent bacteria: control (PBS) = 100%
Experimental: The activity of resveratrol on the adhesion of micro-organisms to human skin or human mucous membranes was measured.
The activity of resveratrol (3,4′,5-trihydroxystilbene) on the adhesion of micro-organisms to human skin or human mucous membranes was tested in a bacteria/skin adhesion model, such as described below.
This ex vivo bacteria/skin adhesion model is based on the use of explants of intact human skin mounted in a sandwich between a bottomless 96 wells plate and a Plexiglas support.
This ex vivo bacteria/skin adhesion model is based on the use of intact human skin mounted in a sandwich between a bottomless 96 wells plate and a Plexiglas support. The impervious individualized wells make it possible to test in a standard format the effect of resveratrol on the adhesion of Staphylococcus epidermis (resident bacteria) to the surface of the skin. The bacteria are radiolabelled in the growth phase by the incorporation of 3H-thymidine. This bacterial flora is then deposited in each well. After incubation for one hour at 20° C., the wells are washed three times with phosphate buffered saline (PBS) in order to remove the free bacteria. The acacia honey is then added at 5 and 10% and incubation allowed to proceed for 1 hour at 20° C. At the end of this incubation the content of each well is recovered and counted in scintillation fluid (desorbed bacteria). The wells are then washed with a chaotropic solution which leads to the elution of the adherent bacteria. The washing solutions are also counted in scintillation fluid (adherent bacteria). A positive control (Fucogel® acid (poly-[(α-1,3)-Fuc-(α-1,3)-Gal-(α-1,3)-galacturonic]) acid is included in the study as reference.

[5] = Staphylococcus, read-out: % of inhibition of adhesion of the bacteria

Molecule: CC(=O)N(c1cccc(C(F)(F)F)c1)C(C(=O)NCC(=O)O)C(C)C (centres unmarked) [Compound A, {2-[acetyl-(3-trifluoromethyl-phenyl)-amino]-3-methyl-butyrylamino}acetic acid]
- Morphometric analysis of elastin fibres (superficial dermis) ([1]; untreated 6.75%, UVA alone 3.9%): 6.8%
- Morphometric analysis of collagen (superficial dermis) ([1]; untreated 87%, UVA alone 81%): 92%

Molecule: CCOP(=O)(CC(=O)N(Cc1ccccc1)C(C(=O)NCCOC(C)=O)C(C)C)OCC (centres unmarked) [Compound B, (2-{benzyl-[(diethoxy-phosphoryl)-acetyl]-amino}-3-methyl-butyryl-amino)ethyl acetate]
- % inhibition of elastase activity tested [2]: 17%

Molecule: Oligo-[α-1,4)-Gluc-(α-1,2)-Fruc-(α-1,6)-Gluc] [Bloé´colia ®]
- Adherent bacteria [3]: 76%
- Desorbed bacteria [3]: 89%
- Adherent bacteria ([3]; listed as Bioecolia®): no significant effect on adhesion

Molecule: CC(=O)OCCNC(=O)C(C(C)C)N(Cc1ccccc1)C(C)=O (centres unmarked) [Compound D, [2-(acetyl-benzyl-amino)-3-methyl-butyrylamino]ethyl acetate]
- % inhibition of elastase activity tested [2]: 13%

Molecule: Oc1ccc(C=Cc2cc(O)cc(O)c2)cc1 [resveratrol, 3,4′,5-trihydroxystilbene]
- Adherent bacteria ([4]; 0.1 μM): 71%
- Adherent bacteria ([4]; 10 μM): 64%
- inhibition at 0.1 µM [4, 5]: 29%
- inhibition at 10 µM [4, 5]: 36%

Molecule: poly-[(α-1,3)-Fuc-(α-1,3)-Gal-(α-1,3)-galacturonic]) acid [Fucogel ®]
- Adherent bacteria ([4]; test product at 10%): 42%
- Adherent bacteria [3]: 12%
- Desorbed bacteria [3]: 257%
